# Tests used:
# [1] = target: T1, Glucagon-like peptide 2 receptor (Homo sapiens) (UniProt O95838); settings: 10 uM
# T1 sequence (whole entry): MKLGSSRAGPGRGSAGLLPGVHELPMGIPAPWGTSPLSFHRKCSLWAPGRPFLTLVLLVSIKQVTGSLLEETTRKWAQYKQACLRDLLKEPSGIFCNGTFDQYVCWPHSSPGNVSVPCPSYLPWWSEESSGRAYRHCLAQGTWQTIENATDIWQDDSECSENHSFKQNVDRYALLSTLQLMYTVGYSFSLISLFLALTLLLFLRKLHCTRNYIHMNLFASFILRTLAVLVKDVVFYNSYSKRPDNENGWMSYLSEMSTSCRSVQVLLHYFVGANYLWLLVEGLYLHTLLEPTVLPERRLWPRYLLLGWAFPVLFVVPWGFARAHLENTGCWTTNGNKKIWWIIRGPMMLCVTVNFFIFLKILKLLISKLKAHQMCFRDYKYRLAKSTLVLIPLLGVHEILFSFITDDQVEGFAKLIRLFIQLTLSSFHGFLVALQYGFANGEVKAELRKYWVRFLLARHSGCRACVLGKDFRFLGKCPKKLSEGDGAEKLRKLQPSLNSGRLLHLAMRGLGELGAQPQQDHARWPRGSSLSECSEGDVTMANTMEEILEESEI
# Description: Antagonist activity at GLP2R (unknown origin) at 10 uM by cAMP accumulation based assay relative to control
# [2] = target: T2, Glucose-dependent insulinotropic receptor (Homo sapiens) (UniProt Q8TDV5); experiment: Agonist activity at GPR119 (unknown origin) at 10 uM by cAMP accumulation based assay relative to control; format: functional
# T2 sequence (whole entry): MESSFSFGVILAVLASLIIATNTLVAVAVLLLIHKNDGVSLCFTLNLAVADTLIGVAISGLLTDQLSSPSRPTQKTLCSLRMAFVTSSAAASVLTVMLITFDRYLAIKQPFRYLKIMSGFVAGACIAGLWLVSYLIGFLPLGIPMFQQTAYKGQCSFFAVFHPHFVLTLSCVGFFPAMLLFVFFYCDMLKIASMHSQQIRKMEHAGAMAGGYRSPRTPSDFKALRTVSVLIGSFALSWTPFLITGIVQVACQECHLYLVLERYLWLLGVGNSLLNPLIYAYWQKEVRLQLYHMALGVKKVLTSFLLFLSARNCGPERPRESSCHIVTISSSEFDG
# [3] = target: Glucagon-like peptide 1 receptor (Homo sapiens) (UniProt P43220); settings: 10 uM
# Description: Antagonist activity at GLP1R (unknown origin) at 10 uM by cAMP accumulation based assay relative to control
# [4] = target: T3, Gastric inhibitory polypeptide receptor (Homo sapiens) (UniProt P48546); settings: 10 uM
# T3 sequence (whole entry): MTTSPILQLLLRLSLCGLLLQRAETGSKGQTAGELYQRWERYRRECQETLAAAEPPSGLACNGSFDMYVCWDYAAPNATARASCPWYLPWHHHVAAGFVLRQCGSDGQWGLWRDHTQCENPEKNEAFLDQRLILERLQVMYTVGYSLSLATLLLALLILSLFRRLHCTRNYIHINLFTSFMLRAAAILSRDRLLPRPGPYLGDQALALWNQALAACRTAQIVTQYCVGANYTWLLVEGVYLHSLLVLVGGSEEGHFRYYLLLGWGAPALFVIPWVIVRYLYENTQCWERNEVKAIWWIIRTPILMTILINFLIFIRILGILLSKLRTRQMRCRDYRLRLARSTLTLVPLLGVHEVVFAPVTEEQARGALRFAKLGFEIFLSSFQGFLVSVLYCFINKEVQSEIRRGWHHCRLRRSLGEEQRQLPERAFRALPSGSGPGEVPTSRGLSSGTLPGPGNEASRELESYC
# Description: Antagonist activity at GIPR (unknown origin) at 10 uM by cAMP accumulation based assay relative to control
# [5] = test system: Mus musculus; experiment: Dose normalized unbound AUC in C57Bl/6J mouse at 50 mg/kg, po administered via gavage as single dose by LC-MS/MS analysis; format: ADME, organism-based; settings: in vivo
# [6] = Fraction unbound in mouse plasma at 5 uM after 4 hrs by equilibrium dialysis method
# [7] = Half life in Sprague-Dawley rat at 1 mg/kg, iv administered as single dose by LC-MS/MS analysis; format: ADME, organism-based; settings: in vivo
# Sequence of Glucagon-like peptide 1 receptor (Homo sapiens) (P43220 whole entry): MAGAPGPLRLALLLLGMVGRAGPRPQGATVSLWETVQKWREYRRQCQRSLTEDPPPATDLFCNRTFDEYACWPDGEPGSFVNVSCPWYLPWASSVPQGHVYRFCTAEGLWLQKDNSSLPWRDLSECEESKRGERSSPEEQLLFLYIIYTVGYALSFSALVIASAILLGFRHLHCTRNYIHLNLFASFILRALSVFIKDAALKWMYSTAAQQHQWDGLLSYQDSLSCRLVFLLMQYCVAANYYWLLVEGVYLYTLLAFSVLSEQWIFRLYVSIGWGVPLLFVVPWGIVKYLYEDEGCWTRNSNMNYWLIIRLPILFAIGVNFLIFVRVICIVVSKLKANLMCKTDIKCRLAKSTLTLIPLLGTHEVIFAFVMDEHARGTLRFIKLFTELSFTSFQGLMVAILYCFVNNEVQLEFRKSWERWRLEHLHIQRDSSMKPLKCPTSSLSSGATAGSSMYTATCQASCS
structure (smiles),measurement,setting,value
COc1ccc(-c2ccccc2-c2csc(N(C(=O)[C@@H](CC(=O)O)CC3CCCC3)C3CC3)n2)cn1,inhibition,[1],< 10%
same,Activity,[2],< 10%
same,inhibition,[3],< 10%
same,inhibition,[4],< 10%
same,fAUC/dose,[5],2.1 µM·min
same,"fraction unbound at 4 h, 5 µM",[6],0.0023
same,half-life,[7],4 h

# Source: ChEMBL document CHEMBL4152373 (Bioorg Med Chem, 2018)
